One series has as its target T1, GABAB receptor (Rattus norvegicus, UniProt O88871+Q9Z0U4).
T1 construct: from tissue; host or cells: rat brain cortex membranes
Put plainly: In vitro [35S]GTPγS binding assay in rat cortical membranes. The class given is biochemical. Particulars: PAM EC50, [35S]GTPγS binding, read-out: In vitro PAM potency. As for the experimental part:
In Vitro [^35S]GTPγS Binding Assay in Rat Cortical Membranes
Cortices of freshly harvested rat brains were dissected on an ice-cold surface and homogenized by a glass Dounce homogeniser immediately in ice-cold buffer containing 50 mM Tris, 5 mM MgCl2 and 1 mM EDTA (pH=7.6). Tissue homogenates were centrifuged at 40000 g for 15 min at 4° C. Membrane pellets were resuspended in the same buffer and membranes were incubated for 10 min at 30° C. in a shaking water bath to eliminate endogenous GABA. Homogenates were centrifuged again under the same conditions. The final pellets were resuspended in ice-cold buffer (pH=7.6) containing 50 mM Tris, 100 mM NaCl, 7 mM MgCl2, 1 mM EDTA and 1 mM dithiotreithol (DTT) to yield a concentration of 20 mg tissue weight/ml and frozen at −70° C. until use. The assay was done in a buffer containing 50 mM Tris (pH=7.4), 100 mM NaCl, 7 mM MgCl2, 1 mM EDTA and 1 mM DTT. Each assay tube contained 150 μL GDP (in a final concentration of 50 μM), 100 μL ligand and 125 μL of the membrane suspension (250 μg tissue/tube). The assay tubes were preincubated for 10 min at 30° C. to assure equilibrium. Nonspecific binding was determined in the presence of 10 μM GTPγS: basal binding was determined in the presence of buffer only. After addition of 50 pM [^35S]GTPγS in a volume of 25 μL to the tubes, membranes were incubated for an additional 60 min at 30° C. The assay was terminated by rapid filtration through Packard UniFilter GF/B using a Packard harvester and washed four times with 1 ml ice-cold buffer. After drying the filters at 40° C. for 1 h, 40 μL Microscint (Packard) was added to the filters and radioactivity of the filters was determined by a TopCount NXT (PerkinElmer, Waltham, Mass.: Alper and Nelson, Eur. J. Pharmacol. 1998, 343, 303-312; Rinken et al, Biochem. Pharmacol. 1999, 57, 155-162). Data thus gathered were used to determine PAM EC50 values for each compound as primary in vitro activity end point.
(In general: GTPγS is a poorly hydrolysed GTP analogue; its binding reports G protein activation.)

Series [1] is described as follows: Plasma and brain levels after the USV assay. Particulars: 1 mg/kg per os, approximately 75 min after treatment; for brain exposure at 1 mg/kg: rat brain; for plasma exposure at 1 mg/kg: rat plasma. It counts as in vivo, rat. As for the experimental part: (§1) Under stressful conditions, adult rats emit 22 kHz ultrasounds that can be reduced by various pharmacological treatments (De Vry et al, Eur. J. Pharmacol. 1993, 249, 331-339; Sanchez, Eur. J. Pharmacol. 2003, 463, 133-143). […] Therefore, a foot shock-induced vocalization paradigm in adult rats was used to assess efficacy of centrally acting GABAB receptor ligands. Behavioral measurements were carried out on male Wistar rats (200-250 g, Toxicoop, Hungary). Rats were housed in groups of four in plastic cages with a wire grid top in a temperature and light-controlled laboratory animal care unit (22±2° C., 12-h light/dark cycle, lights on at 6:00 AM) with ad libitum access to commercial pellet rat food and tap water. Investigations were approved by the Local Ethical Committee of Gedeon Richter Plc. and were carried out in strict compliance with the European Directive 2010/63/EU regarding the care and use of laboratory animals for experimental procedures and all efforts were made to minimize the number of animals as well as their suffering. In order to evoke emission of ultrasounds, animals were footshocked after a habituation period of 30 s (6 shocks, 1 s, 0.8 mA each, inter-shock interval 10 s) in a sound attenuated shocking chamber (Experimetria, 40×40×80 cm). Investigational compounds were administered at the dose of 1 mg/kg in a solid dispersion formulation in distilled water 1 h before shocking per os. Vocalizations were measured right after the last footshock for 10 min with a Metris Sonotrack system and the total time of vocalizations was registered. Vocalization of parallel vehicle treated animals was considered as control value and inhibition percent was calculated for each compound. At approximately 75 min after treatment and behavioral measurements, blood and brain samples were harvested in order to determine exposures associated with in vivo activity.
In Table 2 compounds of this invention measured in the USV assay are listed. In Table 3 plasma and brain levels of compounds of this invention are listed.

A further series concerns adult rats. Put plainly: Foot shock-induced ultrasonic vocalization (USV) in adult rats. The class given is in vivo, rat. As to conditions: 1 mg/kg per os, 1 h before shocking, male Wistar rats, versus vehicle. As for the experimental part: Foot Shock-Induced Ultrasonic Vocalization (USV) in Adult Rats
as §1

T1 sequence (O88871 41-940): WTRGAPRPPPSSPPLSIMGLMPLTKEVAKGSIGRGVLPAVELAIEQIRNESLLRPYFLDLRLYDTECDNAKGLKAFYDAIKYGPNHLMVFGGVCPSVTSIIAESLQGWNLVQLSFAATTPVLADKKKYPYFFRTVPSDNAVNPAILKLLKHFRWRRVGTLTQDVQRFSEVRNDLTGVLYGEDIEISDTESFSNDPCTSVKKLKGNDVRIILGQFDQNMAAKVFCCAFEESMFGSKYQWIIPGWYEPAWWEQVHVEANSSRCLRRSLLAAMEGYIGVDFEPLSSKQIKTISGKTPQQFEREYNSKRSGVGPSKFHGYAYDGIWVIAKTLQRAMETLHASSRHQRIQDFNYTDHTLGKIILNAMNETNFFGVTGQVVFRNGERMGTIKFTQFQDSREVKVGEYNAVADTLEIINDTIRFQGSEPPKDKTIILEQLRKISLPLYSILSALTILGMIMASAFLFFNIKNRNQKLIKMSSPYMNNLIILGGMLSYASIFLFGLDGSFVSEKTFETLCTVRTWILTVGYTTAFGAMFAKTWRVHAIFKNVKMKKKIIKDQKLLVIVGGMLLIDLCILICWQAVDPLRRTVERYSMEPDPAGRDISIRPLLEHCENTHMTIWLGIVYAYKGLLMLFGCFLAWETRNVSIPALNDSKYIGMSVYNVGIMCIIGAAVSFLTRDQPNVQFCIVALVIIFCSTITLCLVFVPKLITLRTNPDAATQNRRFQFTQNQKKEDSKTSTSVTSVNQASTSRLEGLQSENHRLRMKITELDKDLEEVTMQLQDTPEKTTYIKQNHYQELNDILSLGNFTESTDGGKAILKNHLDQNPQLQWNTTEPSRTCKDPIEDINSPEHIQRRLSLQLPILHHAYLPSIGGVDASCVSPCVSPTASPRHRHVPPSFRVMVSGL
T1 sequence (Q9Z0U4 17-960 limits assumed): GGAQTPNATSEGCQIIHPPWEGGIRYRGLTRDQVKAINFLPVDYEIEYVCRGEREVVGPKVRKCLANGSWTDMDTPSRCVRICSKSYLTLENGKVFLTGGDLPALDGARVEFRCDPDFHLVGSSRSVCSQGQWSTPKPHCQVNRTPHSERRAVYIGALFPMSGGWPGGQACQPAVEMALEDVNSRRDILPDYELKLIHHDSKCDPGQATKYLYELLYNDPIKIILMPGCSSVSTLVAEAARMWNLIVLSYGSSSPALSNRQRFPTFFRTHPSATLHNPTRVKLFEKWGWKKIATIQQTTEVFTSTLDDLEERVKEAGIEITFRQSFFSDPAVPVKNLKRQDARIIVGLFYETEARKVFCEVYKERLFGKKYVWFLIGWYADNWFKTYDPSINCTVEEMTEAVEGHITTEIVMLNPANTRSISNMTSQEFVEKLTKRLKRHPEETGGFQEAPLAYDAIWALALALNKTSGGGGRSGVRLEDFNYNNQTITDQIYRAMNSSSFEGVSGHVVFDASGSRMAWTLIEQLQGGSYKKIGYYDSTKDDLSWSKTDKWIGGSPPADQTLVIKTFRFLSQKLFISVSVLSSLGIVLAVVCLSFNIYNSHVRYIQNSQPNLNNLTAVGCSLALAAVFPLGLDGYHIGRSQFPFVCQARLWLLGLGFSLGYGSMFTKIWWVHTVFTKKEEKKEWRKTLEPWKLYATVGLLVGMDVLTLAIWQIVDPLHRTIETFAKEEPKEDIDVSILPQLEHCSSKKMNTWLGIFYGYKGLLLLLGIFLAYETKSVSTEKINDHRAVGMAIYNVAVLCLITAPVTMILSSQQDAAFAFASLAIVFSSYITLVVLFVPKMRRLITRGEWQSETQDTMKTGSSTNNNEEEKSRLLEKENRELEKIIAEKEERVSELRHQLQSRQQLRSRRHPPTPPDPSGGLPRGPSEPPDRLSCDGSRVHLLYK

In the case of `CCCC1(C(=O)O)CCCN(c2c(C(C)C)c(C)nc3cc([C@H]4CC[C@H](C(F)(F)F)CC4)nn23)C1` (single isomer, unassigned) [Example 4], the EC50 at GABAB receptor was in the range of 0.001 to 0.01 µM.

For `CCCC1(C(=O)O)CCCN(c2c(C(C)C)c(C)nc3cc([C@H]4CC[C@H](C(F)(F)F)CC4)nn23)C1` (single isomer, unassigned) [Example 5], at GABAB receptor, the EC50 fell in the range of 0.001 to 0.01 µM.

In the case of `Cc1nc2cc([C@H]3CC[C@H](C(F)(F)F)CC3)nn2c(N2CCCC(CF)(C(=O)O)C2)c1C(C)C` (single isomer, unassigned) [Example 6], the EC50 on GABAB receptor was in the range of 0.001 to 0.01 µM.

For `Cc1nc2cc([C@H]3CC[C@H](C(F)(F)F)CC3)nn2c(N2CCCC(CF)(C(=O)O)C2)c1C(C)C` (single isomer, unassigned) [Example 7], the EC50 on GABAB receptor is below 0.001 µM.

Consider `CC[C@]1(C(=O)O)CCCN(c2c(C(C)C)c(C)nc3cc([C@H]4CC[C@H](C(F)(F)F)CC4)nn23)C1` (single isomer, unassigned) [Example 12], for which, on GABAB receptor, the EC50 was 0.001 to 0.01 µM. Further, in series [1], the “brain exposure at 1 mg/kg” value was found to be 62 ng/g and the “plasma exposure at 1 mg/kg” value worked out at 121 ng/mL. The “USV inhibition at 1 mg/kg (%)” value in the series on adult rats is recorded as 59%.

On to `CC[C@@]1(C(=O)O)CCCN(c2c(C(C)C)c(C)nc3cc([C@H]4CC[C@H](C(F)(F)F)CC4)nn23)C1` (single isomer, unassigned) [Example 13], for which the EC50 on GABAB receptor was below 0.001 µM. Moreover, in series [1], the “brain exposure at 1 mg/kg” value is reported as 31 ng/g and the “plasma exposure at 1 mg/kg” value was 124 ng/mL. Also, the “USV inhibition at 1 mg/kg (%)” value with adult rats came to 97%.

Consider `Cc1nc2c(F)c([C@H]3CC[C@H](C(F)(F)F)CC3)nn2c(N2CCC[C@](C)(C(=O)O)C2)c1C(C)C` (single isomer, unassigned) [Example 15], for which, at GABAB receptor, the EC50 was 0.001 to 0.01 µM. Moreover, in series [1], the “brain exposure at 1 mg/kg” value is listed as 53 ng/g and the “plasma exposure at 1 mg/kg” value is 170 ng/mL. Moreover, in the series on adult rats, the “USV inhibition at 1 mg/kg (%)” value is 89%.

For `Cc1nc2c(F)c([C@H]3CC[C@H](C(F)(F)F)CC3)nn2c(N2CCC[C@@](C)(C(=O)O)C2)c1C(C)C` (single isomer, unassigned) [Example 16], the EC50 on GABAB receptor was below 0.001 µM. For the same compound, in series [1], the “brain exposure at 1 mg/kg” value was 36 ng/g and the “plasma exposure at 1 mg/kg” value worked out at 131 ng/mL. For the same compound, the “USV inhibition at 1 mg/kg (%)” value in the series with adult rats stood at 100%.

Take `CC[C@]1(C(=O)O)CCCN(c2c(C(C)C)c(C)nc3c(F)c([C@H]4CC[C@H](C(F)(F)F)CC4)nn23)C1` (single isomer, unassigned) [Example 17]: the EC50 on GABAB receptor lay within 0.001 to 0.01 µM. Further, in series [1], the “brain exposure at 1 mg/kg” value is 74 ng/g and the “plasma exposure at 1 mg/kg” value was 135 ng/mL. In the series with adult rats, the “USV inhibition at 1 mg/kg (%)” value is 79%.

`COc1c(C)nc2cc([C@H]3CC[C@H](C(F)(F)F)CC3)nn2c1N1CCC[C@](C)(C(=O)O)C1` (single isomer, unassigned) [Example 19]: at GABAB receptor, the EC50 is 0.01 to 0.1 µM.

Take `COc1c(C)nc2cc([C@H]3CC[C@H](C(F)(F)F)CC3)nn2c1N1CCC[C@@](C)(C(=O)O)C1` (single isomer, unassigned) [Example 20]: the EC50 at GABAB receptor lay in the range of 0.1 to 1 µM.

As to `COc1c(C)nc2c(F)c([C@H]3CC[C@H](C(F)(F)F)CC3)nn2c1N1CCC[C@](C)(C(=O)O)C1` (single isomer, unassigned) [Example 23], the EC50 at GABAB receptor was 0.001 to 0.01 µM.

Turning to `COc1c(C)nc2c(F)c([C@H]3CC[C@H](C(F)(F)F)CC3)nn2c1N1CCC[C@@](C)(C(=O)O)C1` (single isomer, unassigned) [Example 24], the EC50 on GABAB receptor lay in the range of 0.01 to 0.1 µM.

Consider `CC[C@]1(C(=O)O)CCCN(c2c(OC)c(C)nc3c(F)c([C@H]4CC[C@H](C(F)(F)F)CC4)nn23)C1` (single isomer, unassigned) [Example 25], for which the EC50 on GABAB receptor fell in the range of 0.01 to 0.1 µM.

Take `CC[C@@]1(C(=O)O)CCCN(c2c(OC)c(C)nc3c(F)c([C@H]4CC[C@H](C(F)(F)F)CC4)nn23)C1` (single isomer, unassigned) [Example 26]: the EC50 on GABAB receptor was 0.01 to 0.1 µM.

As to `Cc1nc2cc(C3CCC(F)(F)CC3)nn2c(N2CCC[C@@](C)(C(=O)O)C2)c1C(C)C` (single isomer, unassigned) [Example 30], the EC50 at GABAB receptor fell in the range of 0.001 to 0.01 µM.

As to `CC[C@@]1(C(=O)O)CCCN(c2c(C(C)C)c(C)nc3cc(C4CCC(F)(F)CC4)nn23)C1` (single isomer, unassigned) [Example 32], the EC50 at GABAB receptor lay in the range of 0.01 to 0.1 µM.

`Cc1nc2cc([C@H]3CC[C@H](C(F)(F)F)CC3)nn2c(N2CCC[C@H](C(=O)O)C2)c1C(C)C` [Example 1, (3S)-1-[5-Methyl-6-(propan-2-yl)-2-[trans-4-(trifluoromethyl)cyclohexyl]pyrazolo[1,5-a]pyrimidin-7-yl]piperidine-3-carboxylic Acid]: the EC50 at GABAB receptor fell in the range of 0.001 to 0.01 µM.

Take `Cc1nc2cc([C@H]3CC[C@H](C(F)(F)F)CC3)nn2c(N2CCC[C@@H](C(=O)O)C2)c1C(C)C` [Example 10]: the EC50 on GABAB receptor was in the range of 0.001 to 0.01 µM.

With `Cc1nc2cc([C@H]3CC[C@H](C(F)(F)F)CC3)nn2c(N2CCC[C@@](C(=O)O)(C(C)C)C2)c1C(C)C` [Example 14], on GABAB receptor, the EC50 lay within 0.001 to 0.01 µM.

For `CC[C@]1(C(=O)O)CCCN(c2c(OC)c(C)nc3cc([C@H]4CC[C@H](C(F)(F)F)CC4)nn23)C1` [Example 21], at GABAB receptor, the EC50 was 0.01 to 0.1 µM.

`CC[C@@]1(C(=O)O)CCCN(c2c(OC)c(C)nc3cc([C@H]4CC[C@H](C(F)(F)F)CC4)nn23)C1` [Example 22]: the EC50 at GABAB receptor fell in the range of 0.1 to 1 µM.

Take `CCc1c(C)nc2cc([C@H]3CC[C@H](C(F)(F)F)CC3)nn2c1N1CCC[C@@](C)(C(=O)O)C1` [Example 27]: the EC50 on GABAB receptor was 0.001 to 0.01 µM.

With `CCc1c(C)nc2cc([C@H]3CC[C@H](C(F)(F)F)CC3)nn2c1N1CCC[C@@](CC)(C(=O)O)C1` [Example 28], the EC50 at GABAB receptor lay within 0.01 to 0.1 µM.

`Cc1nc2cc(C3CCC(F)(F)CC3)nn2c(N2CCC[C@](C)(C(=O)O)C2)c1C(C)C` [Example 29]: the EC50 at GABAB receptor lay within 0.01 to 0.1 µM.

As for `CC[C@]1(C(=O)O)CCCN(c2c(C(C)C)c(C)nc3cc(C4CCC(F)(F)CC4)nn23)C1` [Example 31], the EC50 at GABAB receptor lay within 0.01 to 0.1 µM.

Turning to `CCc1nc2cc([C@H]3CC[C@H](C(F)(F)F)CC3)nn2c(N2CCC[C@@](C)(C(=O)O)C2)c1CC` [Example 33], in series [1], the “brain exposure at 1 mg/kg” value is on record as 34 ng/g and the “plasma exposure at 1 mg/kg” value came out at 172 ng/mL. Further, the “USV inhibition at 1 mg/kg (%)” value in the series on adult rats is reported as 63%.

Regarding `C[C@@]1(C(=O)O)CCCN(c2c3c(nc4cc([C@H]5CC[C@H](C(F)(F)F)CC5)nn24)CCCC3)C1` [Example 34], the EC50 on GABAB receptor was in the range of 0.001 to 0.01 µM.

For `C[C@]1(C(=O)O)CCCN(c2c3c(nc4cc([C@H]5CC[C@H](C(F)(F)F)CC5)nn24)CCOC3)C1` [Example 36], the EC50 at GABAB receptor lay within 0.1 to 1 µM.

With `C[C@]1(C(=O)O)CCCN(c2c3c(nc4cc([C@H]5CC[C@H](C(F)(F)F)CC5)nn24)COCC3)C1` [Example 37], on GABAB receptor, the EC50 lay in the range of 0.1 to 1 µM.

Consider `Cc1nc2c(F)c(C3CCC(F)(F)CC3)nn2c(N2CCC[C@@](C)(C(=O)O)C2)c1C(C)C` [Example 40], for which the EC50 on GABAB receptor lay within 0.001 to 0.01 µM.

As to `C[C@@]1(C(=O)O)CCCN(c2c3c(nc4cc([C@H]5CC[C@H](C(F)(F)F)CC5)nn24)COCC3)C1` [Example 42], at GABAB receptor, the EC50 was in the range of 0.1 to 1 µM.
